In patent publication US20150079029A1, “METHODS AND COMPOSITIONS FOR INHIBITING ANGIOGENESIS” (Oncology Research International Limited, priority 2006, published 2015):

System: aortic explants
Assay: Vessel growth (sprouts and branches) from mouse aortic explants in collagen gel
Assay type: cell-based, C57BL6/J mice
Conditions: for Branches Mean / Sprouts Mean: 1 μL/mL DMSO, 6 days culture, 8 replicates
Protocol: Three male C57BL6/J mice (9 weeks old) were sacrificed by CO2 asphyxiation and the blood harvested by heart puncture using a 29 gauge needle. The aorta was then dissected (from the aortic arch to the pleural/peritoneal interface) and placed in ice-cold DMEM supplemented with 10 mM Hepes and penicillin/streptomycin.
The fibrous and adipose tissues surrounding the aorta were removed by microscopic dissection and the aorta flushed of blood using ice cold DMEM. The aorta was then longitudinally bisected and cut into approximately 1 mm squares. Individual pieces of aorta were embedded in a drop (20 μL) of collagen solution in the bottom of a well of a 24 well tissue culture plate. The plates were then placed at 37° C./5% CO2 for 10 minutes to polymerise the collagen into a gel. Media (0.3 mL) alone, containing DMSO or deltonin in DMSO was then added to each well to form a moat around the collagen gel.
Only the central 8 wells of each 24 well plate were used for explant cultures to avoid differential gaseous exchange and evaporation rates between explant sample wells. The outer wells were filled with PBS.
Nine groups of 8 replicates each were tested:
The explants were then cultured at 37° C./5% CO2 in a humid incubator for 6 days. Explants were fixed at room temperature for 20 minutes by adding an equal volume (0.3 mL) of 4% paraformaldehyde in PBS to each well. After washing three times with HEPES-buffered saline (HBS, 150 mM NaCl, 10 mM HEPES) the explants were stained with 10 μg/ml FITC-BS-1 lectin conjugate (BS-1 lectin specifically binds mouse endothelial cells) in HBS overnight at 4° C. The following day the explants were washed three times with HBS. Vessel outgrowths from explants were visualised by fluorescence microscopy and photographs taken for data analysis. Multiple multidepth focus fluorescent images were photographed for each explant and the photographs processed using deconvolution software so that total vessel outgrowth for each explant could be determined Total cellular growth associated with each explant was also visualised by light microscopy using a dissecting microscope and documented by photography. For ease of visualisation and analysis a composite inverted black and white image was prepared from the multiple fluorescent images of the vessel outgrowths for each explant. The number of vessel sprouts and the number of vessel branches for each explant was then counted with the person counting being blinded to the identity of each sample. The results are summarised in Table 4, and shown graphically in FIG. 1.

C[C@@H]1CC[C@@]2(OC1)O[C@H]1C[C@H]3[C@@H]4CC=C5C[C@@H](O[C@@H]6O[C@H](CO)[C@@H](O[C@@H]7O[C@H](CO)[C@@H](O)[C@H](O)[C@H]7O)[C@H](O)[C@H]6O[C@@H]6O[C@@H](C)[C@H](O)[C@@H](O)[C@H]6O)CC[C@]5(C)[C@H]4CC[C@]3(C)[C@H]1[C@@H]2C [Deltonin, diosgenin Rha2, [Glc4], Glc]
Branches Mean (0.01 μM deltonin): 16
Sprouts Mean (0.01 μM deltonin): 11
Branches Mean (0.03 μM deltonin): 26
Sprouts Mean (0.03 μM deltonin): 18
Branches Mean (0.1 μM deltonin): 24
Sprouts Mean (0.1 μM deltonin): 18
Branches Mean (0.3 μM deltonin): 20
Sprouts Mean (0.3 μM deltonin): 16
Branches Mean (1 μM deltonin): 16
Sprouts Mean (1 μM deltonin): 13
Branches Mean (3 μM deltonin): 0
Sprouts Mean (3 μM deltonin): 0
Branches Mean (10 μM deltonin): 0
Sprouts Mean (10 μM deltonin): 0
vessel branches from aortic explants in comparison to DMSO treated control explant cultures (at 10, 3 and 1 μM): significantly inhibited
vessel sprouts from aortic explants in comparison to DMSO treated control explant cultures (at 10 and 3 μM): significantly inhibited
